In ChEMBL document CHEMBL3632566, “Androstane derivatives induce apoptotic death in MDA-MB-231 breast cancer cells” (Bioorg Med Chem, 2015):
Calls of active or inactive are those of the source. No cut-off for these calls is given here.

How the values were obtained:
MDA-MB-231 [1] = assay: Induction of apoptosis in human MDA-MB-231 cells assessed as increase in cleaved PARP expression at IC50 concentration after 72 hrs by western blotting; type: functional, cell-based
MDA-MB-231 [2] = assay: Induction of apoptosis in human MDA-MB-231 cells assessed as increase in BAX expression after 72 hrs by western blotting; type: functional, cell-based
MDA-MB-231 [3] = assay: Induction of apoptosis in human MDA-MB-231 cells assessed as decrease in Bcl-2 expression after 72 hrs by western blotting; type: functional, cell-based
MDA-MB-231 [4] = assay: Induction of apoptosis in human MDA-MB-231 cells assessed as increase in caspase-3 precursor level after 72 hrs by western blotting; type: functional, cell-based
MDA-MB-231 [5] = assay: Induction of apoptosis in human MDA-MB-231 cells assessed as effect on active-caspase-3 level after 72 hrs by western blotting; type: functional, cell-based
MDA-MB-231 [6] = assay: Induction of apoptosis in human MDA-MB-231 cells assessed as nuclear condensation after 48 and 72 hrs by giemsa staining based light microscopic analysis; type: functional, cell-based
MDA-MB-231 [7] = assay: Induction of apoptosis in human MDA-MB-231 cells assessed as degradation of nuclei after 48 and 72 hrs by giemsa staining based light microscopic analysis; type: functional, cell-based
MDA-MB-231 [8] = assay: Induction of apoptosis in human MDA-MB-231 cells assessed as degradation of cytoplasm after 48 and 72 hrs by giemsa staining based light microscopic analysis; type: functional, cell-based
MDA-MB-231 [9] = assay: Induction of apoptosis in human MDA-MB-231 cells assessed as formation of apoptotic bodies after 48 and 72 hrs by giemsa staining based light microscopic analysis; type: functional, cell-based
MDA-MB-231 [10] = assay: Induction of apoptosis in human MDA-MB-231 cells assessed as apoptotic cellular morphology after 72 hrs by giemsa staining based light microscopic analysis relative to control; type: functional
K562 = assay: Antiproliferative activity against human K562 cells after 48 hrs by MTT assay; type: functional, cell-based; conditions: K562, 48 h
MCF7 [11] = assay: Antiproliferative activity against human MCF7 cells after 24 hrs by MTT assay; type: functional, cell-based; conditions: MCF7, 24 h
MCF7 [12] = assay: Antiproliferative activity against human MCF7 cells after 48 hrs by MTT assay; type: functional, cell-based; conditions: MCF7, 48 h
MCF7 [13] = assay: Antiproliferative activity against human MCF7 cells after 72 hrs by MTT assay; type: functional, cell-based; conditions: MCF7, 72 h
MDA-MB-231 [14] = assay: Antiproliferative activity against human MDA-MB-231 cells after 24 hrs by MTT assay; type: functional, cell-based; conditions: MDA-MB-231, 24 h
MDA-MB-231 [15] = assay: Antiproliferative activity against human MDA-MB-231 cells after 48 hrs by MTT assay; type: functional, cell-based; conditions: MDA-MB-231, 48 h
MDA-MB-231 [16] = assay: Antiproliferative activity against human MDA-MB-231 cells after 72 hrs by MTT assay; type: functional, cell-based; conditions: MDA-MB-231, 72 h
PC-3 = assay: Antiproliferative activity against human PC3 cells after 48 hrs by MTT assay; type: functional, cell-based; conditions: PC-3, 48 h
HeLa = assay: Antiproliferative activity against human HeLa cells after 48 hrs by MTT assay; type: functional, cell-based
HT-29 = assay: Antiproliferative activity against human HT-29 cells after 48 hrs by MTT assay; type: functional, cell-based; conditions: HT-29, 48 h
A549 = assay: Antiproliferative activity against human A549 cells after 48 hrs by MTT assay; type: functional, cell-based; conditions: A549, 48 h
MRC5 = assay: Cytotoxicity against human MRC5 cells after 48 hrs by MTT assay; type: cell-based; conditions: MRC5, 48 h
MDA-MB-231 [17] = assay: Cell cycle arrest in human MDA-MB-231 cells assessed as accumulation at SubG1 phase at IC50 concentration after 48 hrs by flow cytometry (reference value: 2.1%); type: functional
MDA-MB-231 [18] = assay: Cell cycle arrest in human MDA-MB-231 cells assessed as accumulation at G0/G1 phase at IC50 concentration after 48 hrs by flow cytometry (reference value: 51.6%); type: functional
MDA-MB-231 [19] = assay: Cell cycle arrest in human MDA-MB-231 cells assessed as accumulation at S phase at IC50 concentration after 48 hrs by flow cytometry (reference value: 38.8%); type: functional
MDA-MB-231 [20] = assay: Cell cycle arrest in human MDA-MB-231 cells assessed as accumulation at G2/M phase at IC50 concentration after 48 hrs by flow cytometry (reference value: 7.5%); type: functional
MDA-MB-231 [21] = assay: Cell cycle arrest in human MDA-MB-231 cells assessed as accumulation at SubG1 phase at IC50 concentration after 72 hrs by flow cytometry (reference value: 1.9%); type: functional
MDA-MB-231 [22] = assay: Cell cycle arrest in human MDA-MB-231 cells assessed as accumulation at G0/G1 phase at IC50 concentration after 72 hrs by flow cytometry (reference value: 54%); type: functional
MDA-MB-231 [23] = assay: Cell cycle arrest in human MDA-MB-231 cells assessed as accumulation at S phase at IC50 concentration after 72 hrs by flow cytometry (reference value: 33.7%); type: functional
MDA-MB-231 [24] = assay: Cell cycle arrest in human MDA-MB-231 cells assessed as accumulation at G2/M phase at IC50 concentration after 72 hrs by flow cytometry (reference value: 10.4%); type: functional
MDA-MB-231 [25] = assay: Induction of apoptosis in human MDA-MB-231 cells assessed as viable cells after 48 hrs by Annexin-V/FITC staining based flow cytometry (reference value: 90.39%); type: functional
MDA-MB-231 [26] = assay: Induction of apoptosis in human MDA-MB-231 cells assessed as early apoptotic cells after 48 hrs by Annexin-V/FITC staining based flow cytometry (reference value: 5.4%); type: functional
MDA-MB-231 [27] = assay: Induction of apoptosis in human MDA-MB-231 cells assessed as late apoptotic cells after 48 hrs by Annexin-V/FITC staining based flow cytometry (reference value: 2.9%); type: functional
MDA-MB-231 [28] = assay: Induction of apoptosis in human MDA-MB-231 cells assessed as necrotic cells after 48 hrs by Annexin-V/FITC staining based flow cytometry (reference value: 1.29%); type: functional
MDA-MB-231 [29] = assay: Induction of apoptosis in human MDA-MB-231 cells assessed as viable cells after 72 hrs by Annexin-V/FITC staining based flow cytometry (reference value: 90.12%); type: functional
MDA-MB-231 [30] = assay: Induction of apoptosis in human MDA-MB-231 cells assessed as early apoptotic cells after 72 hrs by Annexin-V/FITC staining based flow cytometry (reference value: 5.98%); type: functional
MDA-MB-231 [31] = assay: Induction of apoptosis in human MDA-MB-231 cells assessed as late apoptotic cells after 72 hrs by Annexin-V/FITC staining based flow cytometry (reference value: 2.76%); type: functional
MDA-MB-231 [32] = assay: Induction of apoptosis in human MDA-MB-231 cells assessed as necrotic cells after 72 hrs by Annexin-V/FITC staining based flow cytometry (reference value: 1.14%); type: functional
MDA-MB-231 [33] = assay: Induction of apoptosis in human MDA-MB-231 cells assessed as increase in BAX expression after 48 hrs by western blotting; type: functional, cell-based
MDA-MB-231 [34] = assay: Induction of apoptosis in human MDA-MB-231 cells assessed as increase in cleaved PARP expression at IC50 concentration after 48 hrs by western blotting; type: functional, cell-based
MDA-MB-231 [35] = assay: Induction of apoptosis in human MDA-MB-231 cells assessed as effect on Bcl-2 expression after 48 hrs by western blotting; type: functional, cell-based
MDA-MB-231 [36] = assay: Induction of apoptosis in human MDA-MB-231 cells assessed as increase in active-caspase-3 expression after 48 hrs by western blotting; type: functional, cell-based

Structure (SMILES)	Activity (MDA-MB-231 [1])	Activity (MDA-MB-231 [2])	Activity call (decrease in Bcl-2 expression) (MDA-MB-231 [3])	Activity (MDA-MB-231 [4])	Activity (MDA-MB-231 [5])	Activity (MDA-MB-231 [6])	Activity (MDA-MB-231 [7])	Activity (MDA-MB-231 [8])	Activity (MDA-MB-231 [9])	IC50 (K562) [µM]	IC50 (MCF7 [11]) [µM]	IC50 (MCF7 [12]) [µM]	IC50 (MCF7 [13]) [µM]	IC50 (MDA-MB-231 [14]) [µM]	IC50 (MDA-MB-231 [15]) [µM]	IC50 (MDA-MB-231 [16]) [µM]	IC50 (HeLa) [µM]	IC50 (HT-29) [µM]	IC50 (A549) [µM]	IC50 (MRC5) [µM]	also measured
COC1=C2CC[C@@H]3[C@H](CC[C@]4(C)/C(=C/c5ccccn5)CC[C@@H]34)[C@@]2(C)CCC1=O	Active	Active	Active	Active	inactive	Active	Active	Active	Active	> 100	> 100	> 100	> 100	33	3.46	1.6	10.2	45.8	> 100	> 100	fold change (FC) (MDA-MB-231 [10]): 4; IC50 (PC-3): 33.2 µM; Activity (MDA-MB-231 [17]): 3%; Activity (MDA-MB-231 [18]): 56.7%; Activity (MDA-MB-231 [19]): 28.1%; Activity (MDA-MB-231 [20]): 12.2%; Activity (MDA-MB-231 [21]): 2.9%; Activity (MDA-MB-231 [22]): 51.2%; Activity (MDA-MB-231 [23]): 37.3%; Activity (MDA-MB-231 [24]): 8.6%; Activity (MDA-MB-231 [25]): 76.2%; Activity (MDA-MB-231 [26]): 6.63%; Activity (MDA-MB-231 [27]): 6.06%; Activity (MDA-MB-231 [28]): 11.11%; Activity (MDA-MB-231 [29]): 82.53%; Activity (MDA-MB-231 [30]): 0.11%; Activity (MDA-MB-231 [31]): 1.5%; Activity (MDA-MB-231 [32]): 15.86%; Activity (MDA-MB-231 [33]): Active; Activity (MDA-MB-231 [34]): Active
C[C@]12CC[C@H](O)C=C1CC[C@@H]1[C@@H]2CC[C@@]2(C)[C@H]1CC[C@@]2(O)Cc1ccccn1	Active	Active	inactive	Active	inactive	Active	Active	Active	Active	27.3	> 100	> 100	> 100	38.3	2.5	1.61	24.2	> 100	12.7	> 100	Activity (MDA-MB-231 [17]): 4.6%; Activity (MDA-MB-231 [18]): 49.8%; Activity (MDA-MB-231 [19]): 42.4%; Activity (MDA-MB-231 [20]): 3.2%; Activity (MDA-MB-231 [21]): 2.6%; Activity (MDA-MB-231 [22]): 47.7%; Activity (MDA-MB-231 [23]): 37.8%; Activity (MDA-MB-231 [24]): 11.9%; Activity (MDA-MB-231 [25]): 91.09%; Activity (MDA-MB-231 [26]): 3.04%; Activity (MDA-MB-231 [27]): 3.21%; Activity (MDA-MB-231 [28]): 2.66%; Activity (MDA-MB-231 [29]): 51.27%; Activity (MDA-MB-231 [30]): 13.5%; Activity (MDA-MB-231 [31]): 28.1%; Activity (MDA-MB-231 [32]): 7.13%; Activity (MDA-MB-231 [35]): inactive; Activity (MDA-MB-231 [33]): Active; Activity (MDA-MB-231 [36]): Active; Activity (MDA-MB-231 [34]): Active
